# Data reported in US20240336606A1 (Suzhou Zelgen Biopharmaceuticals Co., Ltd., priority 2020, published 2024).
# Target: T1, binding of KRAS^G12C to SOS1 (Homo sapiens, UniProt Q07889)
# T1 construct: Tag1 (unspecified)
# T1 sequence (Q07889 1-1333): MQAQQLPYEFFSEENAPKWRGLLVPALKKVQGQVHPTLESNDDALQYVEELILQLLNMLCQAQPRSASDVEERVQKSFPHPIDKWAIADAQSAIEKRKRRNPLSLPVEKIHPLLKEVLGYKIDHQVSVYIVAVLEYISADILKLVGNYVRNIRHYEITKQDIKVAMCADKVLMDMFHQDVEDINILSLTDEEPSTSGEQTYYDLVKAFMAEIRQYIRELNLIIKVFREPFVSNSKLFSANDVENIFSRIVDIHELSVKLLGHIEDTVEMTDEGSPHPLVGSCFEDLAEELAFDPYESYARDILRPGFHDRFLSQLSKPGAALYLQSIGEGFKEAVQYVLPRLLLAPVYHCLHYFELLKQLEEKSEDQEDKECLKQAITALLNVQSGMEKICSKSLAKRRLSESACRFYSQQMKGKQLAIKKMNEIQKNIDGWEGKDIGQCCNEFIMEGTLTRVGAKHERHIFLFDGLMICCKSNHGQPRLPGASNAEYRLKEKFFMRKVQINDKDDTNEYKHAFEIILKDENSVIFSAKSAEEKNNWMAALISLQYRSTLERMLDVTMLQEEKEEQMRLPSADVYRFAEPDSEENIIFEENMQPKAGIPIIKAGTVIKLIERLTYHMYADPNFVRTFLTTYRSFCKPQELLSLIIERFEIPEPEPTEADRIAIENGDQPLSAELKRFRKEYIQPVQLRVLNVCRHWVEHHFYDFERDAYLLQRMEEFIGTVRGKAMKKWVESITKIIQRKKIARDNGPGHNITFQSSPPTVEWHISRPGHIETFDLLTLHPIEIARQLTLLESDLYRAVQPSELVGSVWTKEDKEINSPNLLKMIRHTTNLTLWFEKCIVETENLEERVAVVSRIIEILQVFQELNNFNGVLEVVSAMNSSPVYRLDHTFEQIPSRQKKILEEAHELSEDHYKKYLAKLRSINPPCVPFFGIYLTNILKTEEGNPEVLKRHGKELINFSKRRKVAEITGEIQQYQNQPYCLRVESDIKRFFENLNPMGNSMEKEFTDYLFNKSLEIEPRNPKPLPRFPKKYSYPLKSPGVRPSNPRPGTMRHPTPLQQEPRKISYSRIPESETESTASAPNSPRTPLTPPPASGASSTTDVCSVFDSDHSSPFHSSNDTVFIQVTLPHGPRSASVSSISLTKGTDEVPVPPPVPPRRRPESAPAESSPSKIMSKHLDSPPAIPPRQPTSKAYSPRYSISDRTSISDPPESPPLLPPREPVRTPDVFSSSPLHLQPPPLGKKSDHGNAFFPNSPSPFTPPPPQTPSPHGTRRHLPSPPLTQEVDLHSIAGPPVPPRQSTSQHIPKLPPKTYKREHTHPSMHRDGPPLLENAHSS
# Assay: Inhibition of the binding of KRAS^G12C to SOS1
# Settings: Tag1-SOS1 / Tag2-KRAS^G12C, 2 h incubation at room temperature; read-out: IC50 (nM), inhibitory activity on the binding of KRAS^G12C to SOS1
# Experimental: • (1) Gradient dilution of the test compounds: 10 mM mother solution (dissolved in 100% DMSO) was added to a 384-well test plate, the final content of DMSO being 0.25%.
# (2) 5 μL of Tag1-SOS1 solution was added to the test plate, and 5 μL of dilution buffer was added to the control group.
# (3) 5 μL of Tag2-KRAS^G12C solution was added to the test plate.
# (4) 10 μL of Anti-Tag1-Tb3+ and Anti-Tag2-XL665 detection solution were added to the test plate. The plate was centrifuged at 1000 rpm for 1 min and incubated at room temperature for 2 h.
# (6) The IC50 values for the compounds were finally calculated using GraphPad Prism software, and a curve was fit and plotted.
# The inhibitory activity of the compounds of the examples of the present invention on the binding of KRAS^G12C enzyme to SOS1 is shown in Table 1.
row,IC50 [nM],Compound
1,6.2,"COc1cc2nc(C)nc(N[C@H](C)c3cc(N)cc(C(F)(F)F)c3)c2cc1OC[C@H](C)OC1COC1 [Example 69, N—((R)-1-(3-Amino-5-(trifluoromethyl)phenyl)ethyl)-7-methoxy-2-methyl-6-((S)-2-(oxetan-3-yloxy)propoxy)quinazolin-4-amine]"
2,18,"COc1cc2nc(C)nc(N[C@H](C)c3cc(C(F)(F)F)cc(N)n3)c2cc1OCCOC1COC1 [Example 60, (R)—N-(1-(6-Amino-4-(trifluoromethyl)pyridin-2-yl)ethyl)-7-methoxy-2-methyl-6-(2-(oxetan-3-yloxy)ethoxy)quinazolin-4-amine]"
3,1090,COc1cc2nc(C)nc(N[C@H](C)c3cccc(C(F)(F)F)c3F)c2cc1OC[C@@H]1CCCN1C(=O)OC(C)(C)C [Example 16]
4,8.5,COc1cc2nc(C)nc(N[C@H](C)c3cc(N)cc(C(F)(F)F)c3)c2cc1OC[C@@H]1CCCN1C [Example 2]
5,21,"COc1cc2nc(C)nc(N[C@H](C)c3cc(N)cc(C(F)(F)F)c3)c2cc1OC[C@@H]1CCCO1 [Example 39, N—((R)-1-(3-Amino-5-(trifluoromethyl)phenyl)ethyl)-7-methoxy-2-methyl-6-(((S)-tetrahydrofuran-2-yl)methoxy)quinazolin-4-amine]"
6,3.4,COc1cc2nc(C)nc(N[C@H](C)c3cccc(C(F)(F)C(C)(C)O)c3F)c2cc1OCCN(C)CC1CCC1 [Example 9]
7,24,"COc1cc2nc(C)nc(N[C@H](C)c3cc(N)cc(C(F)(F)F)n3)c2cc1OCCOC1COC1 [Example 70, (R)—N-(1-(4-Amino-6-(trifluoromethyl)pyridin-2-yl)ethyl)-7-methoxy-2-methyl-6-(2-(oxetan-3-yloxy)ethoxy)quinazolin-4-amine]"
8,252,"COc1cc2nc(C)nc(N[C@H](C)c3cc(N)nc(C(F)(F)F)c3)c2cc1OCCOC1CC1 [Example 41, (R)—N-(1-(2-Amino-6-(trifluoromethyl)pyridin-4-yl)ethyl)-6-(2-cyclopropoxyethoxy)-7-met hoxy-2-methylquinazolin-4-amine]"
9,5.2,"[2H]C([2H])([2H])OCCOc1cc2c(N[C@H](C)c3cc(N)cc(C(F)(F)F)c3)nc(C)nc2cc1OC [Example 57, (R)—N-(1-(3-Amino-5-(trifluoromethyl)phenyl)ethyl)-7-methoxy-6-(2-(methoxy-d3)ethoxy)-2-methylquinazolin-4-amine]"
10,18,"COc1cc2nc(C)nc(N[C@H](C)c3cc(N)cc(C(F)(F)F)c3)c2cc1OCC1(C(C)OC)CC1 (single isomer, unassigned) [Example 65A]"
11,> 1000,"COc1cc2nc(C)nc(N[C@H](C)c3cc(C(F)(F)F)ccn3)c2cc1OCCOC1CC1 [Example 36, (R)-6-(2-Cyclopropoxyethyloxy)-7-methoxy-2-methyl-N-(1-(4-(trifluoromethyl)pyridin-2-yl)ethyl)quinazolin-4-amine]"
12,5.2,"COCC1(COc2cc3c(N[C@H](C)c4cc(N)cc(C(F)(F)F)c4)nc(C)nc3cc2OC)COC1 [Example 43, (R)—N-(1-(3-Amino-5-(trifluoromethyl)phenyl)ethyl)-7-methoxy-6-((3-(methoxymethyl)oxetan-3-yl)methoxy)-2-methylquinazolin-4-amine]"
13,3.7,"COc1cc2nc(C)nc(N[C@H](C)c3cc(N)cc(C(F)(F)F)c3)c2cc1OCCCOC1CC1 [Example 53, (R)—N-(1-(3-Amino-5-(trifluoromethyl)phenyl)ethyl)-6-(3-cyclopropoxypropoxy)-7-methox y-2-methylquinazolin-4-amine]"
14,7.5,"COc1cc2nc(C)nc(N[C@H](C)c3cccc(C(F)(F)C(C)(C)O)c3F)c2cc1OCCN(C)S(C)(=O)=O [Example 33, (R)—N-(2-((4-((1-(3-(1,1-Difluoro-2-hydroxy-2-methylpropyl)-2-fluorophenyl)ethyl)amino)-7-methoxy-2-methylquinazolin-6-yl)oxy)ethyl)-N-methylmethanesulfonamide]"
15,20,"COCCOc1cc2c(N[C@H](C)c3cccc(C(F)(F)C(C)(C)O)c3Cl)nc(C)nc2cc1OC [Example 88, (R)-1-(2-Chloro-3-(1-((7-methoxy-6-(2-methoxyethoxy)-2-methylquinazolin-4-yl)amino)ethyl)phenyl)-1,1-difluoro-2-methylpropan-2-ol]"
16,7.9,COc1cc2nc(C)nc(N[C@H](C)c3cccc(C(F)(F)C(C)(C)O)c3F)c2cc1OC[C@H]1CNCCO1 [Example 23]
17,16,"COc1cc2nc(C)nc(N[C@H](C)c3cccc(C(F)(F)F)c3F)c2cc1OCC1(CO)CC1 [Example 55, (R)-(1-(((4-((1-(2-Fluoro-3-(trifluoromethyl)phenyl)ethyl)amino)-7-methoxy-2-methylquinazolin-6-yl)oxy)methyl)cyclopropyl)methanol]"
18,3.7,"COc1cc2nc(C)nc(N[C@H](C)c3cc(N)cc(C(F)(F)F)c3)c2cc1OCCOC1(C)COC1 [Example 61, (R)—N-(1-(3-Amino-5-(trifluoromethyl)phenyl)ethyl)-7-methoxy-2-methyl-6-(2-((3-methyloxetan-3-yl)oxy)ethoxy)quinazolin-4-amine]"
19,2.5,COc1cc2nc(C)nc(N[C@H](C)c3cc(N)cc(C(F)(F)F)c3)c2cc1OCCN(C)S(C)(=O)=O [Example 13]
20,10,"COc1cc2nc(C)nc(N[C@H](C)c3cc(N)cc(C(F)(F)F)c3)c2cc1OCC1(OC)CC1 [Example 46, (R)—N-(1-(3-Amino-5-(trifluoromethyl)phenyl)ethyl)-7-methoxy-6-((1-methoxycyclopropyl)methoxy)-2-methylquinazolin-4-amine]"
21,4.6,COc1cc2nc(C)nc(N[C@H](C)c3cccc(C(F)(F)C(C)(C)O)c3F)c2cc1OC[C@@H]1CCCN1C [Example 1]
22,17,"COc1cc2nc(C)nc(N[C@H](C)c3cc(N)cc(C(F)(F)F)c3F)c2cc1OCCOC1CC1 [Example 35, (R)—N-(1-(5-Amino-2-fluoro-3-(trifluoromethyl)phenyl)ethyl)-6-(2-cyclopropoxyethyloxy)-7-methoxy-2-methylquinazolin-4-amine]"
23,167,"Cc1nc(N[C@H](C)c2cc(N)cc(C(F)(F)F)c2)c2cc(OCCOC3CC3)c(C(F)(F)F)cc2n1 [Example 45, (R)—N-(1-(3-Amino-5-(trifluoromethyl)phenyl)ethyl)-6-(2-cyclopropoxyethoxy)-2-methyl-7-(trifluoromethyl)quinazolin-4-amine]"
24,924,COCCOc1cc2c(N[C@H](C)c3cncc(C(F)(F)C(C)(C)O)c3)nc(C)nc2cc1OC [Example 77]
25,31,"COCCOc1cc2c(N[C@H](C)c3cc(N)cc(C(F)(F)F)n3)nc(C)nc2cc1OC [Example 52, (R)—N-(1-(4-Amino-6-(trifluoromethyl)pyridin-2-yl)ethyl)-7-methoxy-6-(2-methoxyethoxy)-2-methylquinazolin-4-amine]"
26,8.2,"COc1cc2nc(C)nc(N[C@H](C)c3cc(N)cc(C(F)(F)F)c3)c2cc1OC[C@H]1CCCO1 [Example 40, N—((R)-1-(3-Amino-5-(trifluoromethyl)phenyl)ethyl)-7-methoxy-2-methyl-6-(((R)-tetrahydrofuran-2-yl)methoxy)quinazolin-4-amine]"
27,3.3,"COc1cc2nc(C)nc(N[C@H](C)c3cc(N)cc(C(F)(F)F)c3)c2cc1OCCOC1CC1 [Example 7, (R)—N-(1-(3-amino-5-(trifluoromethyl)phenyl)ethyl)-6-(2-cyclopropoxy)-7-methoxy-2-meth ylquinazolin-4-amine]"
